One assay has as its target T1, human ANO6 (Homo sapiens, UniProt Q4KMQ2).
T1 construct: expressed in transfected cells
T1 sequence (Q4KMQ2 1-931 isoform Q4KMQ2-2): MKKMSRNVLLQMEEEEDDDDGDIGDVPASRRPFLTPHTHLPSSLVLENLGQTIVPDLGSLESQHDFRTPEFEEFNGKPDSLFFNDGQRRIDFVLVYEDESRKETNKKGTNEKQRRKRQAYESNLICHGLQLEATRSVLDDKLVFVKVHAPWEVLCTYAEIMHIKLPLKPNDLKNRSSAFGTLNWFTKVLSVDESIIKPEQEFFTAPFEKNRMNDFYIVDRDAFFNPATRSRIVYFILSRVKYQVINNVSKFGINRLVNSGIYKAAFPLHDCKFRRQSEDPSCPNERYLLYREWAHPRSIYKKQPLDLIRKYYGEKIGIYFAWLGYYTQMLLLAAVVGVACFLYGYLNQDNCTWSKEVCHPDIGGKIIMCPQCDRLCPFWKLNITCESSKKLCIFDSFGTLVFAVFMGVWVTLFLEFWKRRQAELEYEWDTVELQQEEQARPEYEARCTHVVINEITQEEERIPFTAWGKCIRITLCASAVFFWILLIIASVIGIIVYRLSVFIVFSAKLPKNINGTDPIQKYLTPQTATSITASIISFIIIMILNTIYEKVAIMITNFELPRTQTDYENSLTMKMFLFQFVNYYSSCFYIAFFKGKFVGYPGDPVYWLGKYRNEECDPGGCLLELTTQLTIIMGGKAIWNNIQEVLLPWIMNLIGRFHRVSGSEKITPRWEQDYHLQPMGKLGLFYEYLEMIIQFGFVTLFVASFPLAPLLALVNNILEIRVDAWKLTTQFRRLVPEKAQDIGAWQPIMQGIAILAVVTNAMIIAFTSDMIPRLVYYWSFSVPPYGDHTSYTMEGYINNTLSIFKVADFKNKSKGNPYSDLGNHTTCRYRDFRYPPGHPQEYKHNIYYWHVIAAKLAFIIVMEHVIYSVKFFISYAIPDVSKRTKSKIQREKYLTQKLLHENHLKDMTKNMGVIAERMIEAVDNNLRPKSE
Kind of assay: LACT C2 assay (phosphatidylserine scramblase function assay). The format is cell-based. The note with it: FRT cells expressing human ANO6, 10 μM ionomycin; for inhibition at 0.1 µM: test compound 100 nM, read-out: Inhibition Level 100 nM; for inhibition at 1 µM: test compound 1 μM, read-out: Inhibition Level 1 μM. In outline:
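FRT cells stably expressing human ANO6 were pretreated with compound (1% DMSO) for 10 min, then stimulated with 10 μM ionomycin for 10 min. Surface phosphatidylserine was stained with 500 nM Lact-C2-GFP and quantified by imaging. Inhibition was scaled between unstimulated (100%) and ionomycin-only (0%) controls, averaged over triplicates.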

Assay [1] concerns platelet-rich plasma (PRP). Description: Recalcification time of rat platelet-rich plasma. As to conditions: 30 μM, vs 2% DMSO control. On the procedure:
Example 5: Recalcification Time
(§1) 1. Materials and Instruments
Isoflurane (Hana Pharm, cat. #9008), Isotonic Sodium Chloride Injection (Daihan Pharm, cat. #331), Citrate-dextrose solution (Sigma-Aldrich, cat. #C3821), Calcium chloride solution (Sigma-Aldrich, cat. #21115), 22G Syringe 10 mL (Koreavaccine), Dimethyl sulfoxide (Sigma-Aldrich, cat. #D5879), Apixaban (AK scientific, cat. #X1060), 96 Well Cell Culture Plates (SPL Life Sciences, cat. #30096), Synergy H4 Hybrid Microplate Reader (BioTek), Combi R515 Multi-purpose Centrifuge (Hanil Scientific), BS-06 Shaking & Heating Baths (JEIO TECH), and PST-60HL-4 Plate Shaker-Thermostat (Bio-San)
Seven-week-old male SD Rat (ORIENT BIO.) were maintained under controlled conditions of temperature (22±2° C.) and 12-h light/12-h dark cycle. Rats were housed in the pathogen-free facility of the Laboratory Animal Research Center in Ildong Pharmaceutical Co. Ltd. All procedures on animals were conducted in accordance with the relevant national regulatory guidelines and individual experiments approved by the Ildong Pharmaceutical Co. Ltd., Institutional Animal Care and Use Committee (IACUC) (approval No.: A2106-3, 2108-4).
The ability of test compounds to interfere with plasma coagulation, in the presence of platelets, was analyzing by measuring the recalcification time of rat plasma. The blood of animals was collected into 15 mL tubes containing Citrate-dextrose solution (9:1 v/v) before performing the assays. For recalcification time, platelet-rich plasma (PRP) samples were obtained by centrifugation at 360×g for 10 minutes. And the PRP were preincubated for 5 minutes (37° C.). In a 96 well microplate, test compounds (2 μL) were treated in 98 μL of platelet rich plasma. After mixing with a pipette, it was incubated at 37° C. for 15 minutes. The reaction was started by addition of 200 μL of pre-warmed CaCl2) (16 mM). Immediately, put the microplate in a microplate reader and the signals were measured by the following steps.
(1) 405 nm wavelength absorbance signals were recorded in every 10 seconds at 37° C.
(2) Basal absorbance signals were recorded for 0 second.
The signal variance of each of the test compounds was obtained by the following step.
(1) Background signals (t=O) were subtracted from recording values, and the resulting values were converted to change values. The values at 0 second were set to be zero.
The retardation time of test compound were calculated by the following formula:
Retardation time (sec)=[log EC50 (test sample)−log EC50 (DMSO control)]
As described above, a DMSO control group is a group to which 2% DMSO was treated.
The assay result is shown in Table 5, where compounds (30 μM) having less than 20 seconds of retardation time are marked by ‘C’; the compounds (30 μM) having retardation time of 20 seconds or more to less than 50 seconds are marked by ‘B’; and the compounds (30 μM) having retardation time of 50 seconds or more are marked by ‘A’.

A further assay has as its system citrated human blood. Kind of assay: NATEM (ROTEM thromboelastometry, blood clot formation). The note with it: 100 μM, 2% v/v DMSO, 15 min preincubation. On the procedure:
as §1
Star-TEM reagent (TEM International GmbH, cat. #000503-01), Dimethyl sulfoxide (Sigma-Aldrich, cat. #D2438), Cleancle normal saline (JW Pharm), and ROTEM® delta system (TEM International GmbH).
Human blood research was experimented after approval from the Yonsei University Institutional Review Board (IRB) in accordance with the Life Ethics and Safety Act.
Blood samples for NATEM were kept at room temperature, and all NATEM analyses were performed at 37° C. NATEM was carried out using 300 μL of citrated human blood preincubating with test compounds (100 μM, 2% v/v DMSO) for 15 minutes in cuvette and […] with Star-TEM reagent according to the manufacturer's manual (ROTEM; Tem International GmbH, Munich, Germany). After addition of the star-TEM reagent, cuvettes were measured by ROTEM® delta system. Blood clot formation was evaluated.
The obtained parameters were time to clot initiation (Clotting Time, CT), time to clot formation, α angle for clot growth kinetics (initial rate of fibrin polymerization), amplitude (firmness) at 10 minutes, maximum clot firmness, and maximum lysis.

The structures appear in SMILES notation.

Regarding `O=C(N[C@@H]1C[C@H]1c1ccccc1)c1cccc(Nc2ccc(-c3ccncn3)cc2)c1` [Compound 174, N-((1R,2S)-2-phenylcyclopropyl)-3-((4-(pyrimidin-4-yl)phenyl)amino)benzamide], on human ANO6, the inhibition at 0.1 µM is at least 60%. In addition, in assay [1], the “Inhibition Level (retardation time, recalcification time)” value is “B (the compounds (30 μM) having retardation time of 20 seconds or more to less than 50 seconds)”. In the assay on citrated human blood, the “A10, amplitude (firmness) at 10 minutes” value was 45 mm; the “CFT, clot formation time” value worked out at 180 s; the “CT, clotting time” value was found to be 665 s; the “MCF, maximum clot firmness” value was determined as 56 mm. In addition, in the assay on citrated human blood, the “ML, maximum lysis” value turned out to be 2% and the “α, α-angle” value came out at 57 °.

`O=C(N[C@@H]1C[C@H]1c1ccccc1)c1cccc(Nc2ccc(-c3ccccn3)cc2)c1` [Compound 155, N-((1R,2S)-2-phenylcyclopropyl)-3-((4-(pyridin-2-yl)phenyl)amino)benzamide]: at human ANO6, the inhibition at 0.1 µM is at least 60% and the inhibition at 1 µM was at least 60%. For the same compound, the “Inhibition Level (retardation time, recalcification time)” value in assay [1] is on record as “A (the compounds (30 μM) having retardation time of 50 seconds or more)”. Also, in the assay with citrated human blood, the “A10, amplitude (firmness) at 10 minutes” value is 45 mm; the “CFT, clot formation time” value came out at 168 s; the “CT, clotting time” value amounted to 616 s; the “MCF, maximum clot firmness” value is given as 57 mm. In the assay with citrated human blood, the “ML, maximum lysis” value turned out to be 2% and the “α, α-angle” value is 59 °.

`O=C(N[C@@H]1C[C@H]1c1ccccc1)c1cccc(Nc2ccc(-c3cnccn3)cc2)c1` [Compound 173, N-((1R,2S)-2-phenylcyclopropyl)-3-((4-(pyrazin-2-yl)phenyl)amino)benzamide]: on human ANO6, the inhibition at 0.1 µM was under 30%. In addition, in assay [1], the “Inhibition Level (retardation time, recalcification time)” value is on record as “B (the compounds (30 μM) having retardation time of 20 seconds or more to less than 50 seconds)”.

`O=C(N[C@@H]1C[C@H]1c1ccccc1)c1cccc(Nc2ccc(-c3cccnc3)cc2)c1` [Compound 161, N-((1R,2S)-2-phenylcyclopropyl)-3-((4-(pyridin-3-yl)phenyl)amino)benzamide]: on human ANO6, the inhibition at 0.1 µM is at least 60% and the inhibition at 1 µM is at least 60%. The “Inhibition Level (retardation time, recalcification time)” value in assay [1] is given as “A (the compounds (30 μM) having retardation time of 50 seconds or more)”.

With `O=C(Nc1cccc(F)c1)c1cccc(Nc2ccc(-c3cnccn3)cc2)c1` [Compound 172, N-(3-fluorophenyl)-3-((4-(pyrazin-2-yl)phenyl)amino)benzamide], the inhibition at 0.1 µM at human ANO6 was at least 60%. Besides, in assay [1], the “Inhibition Level (retardation time, recalcification time)” value is on record as “C (compounds (30 μM) having less than 20 seconds of retardation time)”.

What is called inhibition is the percentage by which the read-out fell short of the control.

Source of the values: patent publication US20230080054A1 (ILDONG PHARMACEUTICAL CO., LTD., priority 2021, published 2023).
